{"source": "patent US10016480B2", "about": "“Peptide-based methods for treating pancreatic cancer” (The United States of America, as represented by the …, priority 2014, dated 2018)", "test": "Serum stability", "assay_type": "in vitro ADME", "note": "No end group written: not given here."}
{"sequence": "FAKKFAKKFK [Peptide B, Phe-Ala-Lys-Lys-Phe-Ala-Lys-Lys-Phe-Lys]", "values": [{"measurement": "stability in serum", "result": "stable in serum"}]}
